Data from PMC6944674, “Comparison of the Hepatotoxic Potential of Two Treatments for Autosomal-Dominant Polycystic Kidney DiseaseUsing Quantitative Systems Toxicology Modeling” (Pharmaceutical Research, 2020).
“And” between values parts separate entries of the source, which are not always exact repeats. Equal values may be shown once. Read-outs that look alike come from different tables or passages of the source.

Key:
[1] = target: T1, human MRP3 (Homo sapiens, UniProt O15438); test: MRP3 vesicular transport inhibition assay (E217βG, HEK-293 cell membrane vesicles); type: biochemical
T1 construct: host or cells: HEK-293 cell membrane vesicles
T1 sequence (O15438 whole entry): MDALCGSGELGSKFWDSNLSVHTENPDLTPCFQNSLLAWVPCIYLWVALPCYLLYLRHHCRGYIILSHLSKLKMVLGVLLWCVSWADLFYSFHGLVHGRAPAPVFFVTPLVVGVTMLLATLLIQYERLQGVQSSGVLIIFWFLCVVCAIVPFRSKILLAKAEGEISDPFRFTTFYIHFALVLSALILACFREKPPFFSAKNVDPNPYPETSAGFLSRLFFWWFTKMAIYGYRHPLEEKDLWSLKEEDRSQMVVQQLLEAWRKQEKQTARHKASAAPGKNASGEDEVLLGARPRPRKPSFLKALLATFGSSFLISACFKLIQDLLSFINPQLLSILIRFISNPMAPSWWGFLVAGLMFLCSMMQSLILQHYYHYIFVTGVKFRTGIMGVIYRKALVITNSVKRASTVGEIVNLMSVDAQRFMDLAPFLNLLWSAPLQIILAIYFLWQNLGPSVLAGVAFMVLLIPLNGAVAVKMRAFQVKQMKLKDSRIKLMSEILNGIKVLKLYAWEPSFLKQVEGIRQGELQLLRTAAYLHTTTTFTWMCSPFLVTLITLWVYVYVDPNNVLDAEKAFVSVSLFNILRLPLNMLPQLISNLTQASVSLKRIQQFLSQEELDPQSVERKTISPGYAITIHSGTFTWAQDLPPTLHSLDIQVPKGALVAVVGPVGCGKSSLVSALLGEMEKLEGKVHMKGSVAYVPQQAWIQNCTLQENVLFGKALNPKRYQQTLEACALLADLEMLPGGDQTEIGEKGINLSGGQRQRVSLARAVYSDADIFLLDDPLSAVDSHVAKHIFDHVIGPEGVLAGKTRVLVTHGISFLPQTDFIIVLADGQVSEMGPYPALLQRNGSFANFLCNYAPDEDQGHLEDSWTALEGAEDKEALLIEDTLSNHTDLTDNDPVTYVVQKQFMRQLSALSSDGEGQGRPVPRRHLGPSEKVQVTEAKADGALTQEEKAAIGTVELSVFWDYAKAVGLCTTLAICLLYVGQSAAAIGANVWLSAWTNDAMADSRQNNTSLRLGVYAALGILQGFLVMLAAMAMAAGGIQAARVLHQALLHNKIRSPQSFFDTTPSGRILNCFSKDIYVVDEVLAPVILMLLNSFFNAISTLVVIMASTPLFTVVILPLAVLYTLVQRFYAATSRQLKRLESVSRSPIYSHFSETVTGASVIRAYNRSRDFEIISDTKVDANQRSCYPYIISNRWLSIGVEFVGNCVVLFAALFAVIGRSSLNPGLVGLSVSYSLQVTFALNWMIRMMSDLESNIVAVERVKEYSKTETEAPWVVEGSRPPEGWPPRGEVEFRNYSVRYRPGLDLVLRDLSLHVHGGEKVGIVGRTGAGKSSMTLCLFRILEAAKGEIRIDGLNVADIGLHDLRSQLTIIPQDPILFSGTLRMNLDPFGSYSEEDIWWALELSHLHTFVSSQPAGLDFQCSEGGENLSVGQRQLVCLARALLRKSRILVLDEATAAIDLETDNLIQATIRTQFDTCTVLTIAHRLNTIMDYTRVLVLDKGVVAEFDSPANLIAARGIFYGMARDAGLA
Protocol: (§1) The functional impact of lixivaptan, its three metabolites and tolvaptan on the human ABC (efflux) transporters BSEP and MRP3 and MRP4 was assessed for this project using in vitro vesicular transport inhibition assays. The inhibition of the human SLC (uptake) transporter NTCP was assessed using CHO cells stably expressing human NTCP. The concentration ranges used for the five test articles was determined based on the solubility of each compound in the assay solution. All transporter inhibition assays were conducted in triplicate by Solvo Biotechnology (Szeged, Hungary).
Figure B3. […] See Appendix A for more details.

[2] = target: T2, human BSEP (Homo sapiens, UniProt O95342); set-up: method as in earlier work; details: ref (7); read-out: BSEP Ki used in DILIsym simulations previously; cited from earlier work
T2 construct: host or cells: HEK-293 cell membrane vesicles
T2 sequence (O95342 whole entry): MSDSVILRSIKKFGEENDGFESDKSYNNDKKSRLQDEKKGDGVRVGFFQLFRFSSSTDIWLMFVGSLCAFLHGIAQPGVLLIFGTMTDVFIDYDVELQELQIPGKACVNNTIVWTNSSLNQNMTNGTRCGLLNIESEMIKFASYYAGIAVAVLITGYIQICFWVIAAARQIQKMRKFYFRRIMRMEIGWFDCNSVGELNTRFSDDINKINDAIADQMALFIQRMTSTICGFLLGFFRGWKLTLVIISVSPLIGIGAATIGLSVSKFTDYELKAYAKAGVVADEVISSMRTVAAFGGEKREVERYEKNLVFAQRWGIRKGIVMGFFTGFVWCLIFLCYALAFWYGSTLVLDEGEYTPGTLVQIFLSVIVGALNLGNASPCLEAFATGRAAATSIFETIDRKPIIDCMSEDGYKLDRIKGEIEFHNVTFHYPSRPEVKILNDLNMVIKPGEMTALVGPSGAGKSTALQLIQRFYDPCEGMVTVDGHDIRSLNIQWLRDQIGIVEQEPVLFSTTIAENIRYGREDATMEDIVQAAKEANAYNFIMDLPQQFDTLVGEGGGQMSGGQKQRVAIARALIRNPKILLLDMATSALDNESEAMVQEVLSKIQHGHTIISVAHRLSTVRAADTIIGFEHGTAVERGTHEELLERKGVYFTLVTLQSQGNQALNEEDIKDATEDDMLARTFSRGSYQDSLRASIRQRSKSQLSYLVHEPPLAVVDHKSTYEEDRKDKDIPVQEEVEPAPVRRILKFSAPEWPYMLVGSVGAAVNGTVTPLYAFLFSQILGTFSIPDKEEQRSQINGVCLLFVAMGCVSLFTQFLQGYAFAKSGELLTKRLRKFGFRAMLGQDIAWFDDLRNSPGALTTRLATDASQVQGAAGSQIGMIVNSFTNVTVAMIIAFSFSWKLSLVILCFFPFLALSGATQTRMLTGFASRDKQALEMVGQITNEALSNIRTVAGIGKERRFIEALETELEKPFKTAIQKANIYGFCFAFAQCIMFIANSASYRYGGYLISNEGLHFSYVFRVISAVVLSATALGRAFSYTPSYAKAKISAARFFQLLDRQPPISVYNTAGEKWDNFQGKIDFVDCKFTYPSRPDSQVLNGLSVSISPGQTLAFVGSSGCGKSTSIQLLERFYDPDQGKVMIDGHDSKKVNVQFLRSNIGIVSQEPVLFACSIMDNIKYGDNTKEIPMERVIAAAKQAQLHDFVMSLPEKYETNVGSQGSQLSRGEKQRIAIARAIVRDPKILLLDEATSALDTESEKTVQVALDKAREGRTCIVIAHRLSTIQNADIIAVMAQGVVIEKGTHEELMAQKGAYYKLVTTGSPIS

[3] = 90/30 mg, cited from earlier work
[4] = system: mitochondrial electron transport chain; details: intracellular concentrations not measured; cited from earlier work
[5] = target: T3, human NTCP (Homo sapiens, UniProt Q14973); test: NTCP inhibition in CHO cells stably expressing human NTCP (taurocholate); type: cell-based; details: CHO cells
T3 sequence (Q14973 1-349): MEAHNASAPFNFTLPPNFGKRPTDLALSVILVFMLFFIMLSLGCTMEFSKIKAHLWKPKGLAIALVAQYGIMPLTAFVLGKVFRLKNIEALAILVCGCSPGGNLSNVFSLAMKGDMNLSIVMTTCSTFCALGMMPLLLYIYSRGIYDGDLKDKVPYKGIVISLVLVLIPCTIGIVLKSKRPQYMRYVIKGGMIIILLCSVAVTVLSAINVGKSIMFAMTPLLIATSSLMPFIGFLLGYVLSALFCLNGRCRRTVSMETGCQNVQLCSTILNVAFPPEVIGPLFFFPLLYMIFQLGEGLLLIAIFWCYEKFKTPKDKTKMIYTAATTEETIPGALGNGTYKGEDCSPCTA
Protocol: as §1
Figure B4. […] See Appendix A for more details.

[6] = system: mitochondrial electron transport chain; test: ETC inhibition parameter from MITOsym simulation of OCR data, translated to DILIsym; details: calculated from 24 h HepG2 OCR data and measured intracellular concentrations; lower = higher risk
Excerpt: The parameters calculated in this manner were then translated to DILIsym parameters using a conversion factor based on the relative activity of rotenone in the in vitro vs. in vivo environment (7).

[7] = system: HepG2 cells; test: Intracellular concentration by LC/MS/MS in HepG2 cultures parallel to Seahorse assay; type: in vitro ADME; details: Seahorse medium; for CIntracellular Fraction: cell lysate; for CHepatocyte: corrected for lysate and HepG2 cell volume
Protocol: (§2) The concentration of test compound at the site of action (i.e. hepatocytes) has been identified as highly influential in the selection of parameter values (7). To assess intracellular concentrations of the five test articles, identical HepG2 cultures were established in parallel and cell lysate concentrations of the test articles were measured by LC/MS/MS analysis. Intracellular concentrations of the test articles were calculated by correcting for cell lysate volume (100 µL) and the volume of HepG2 cells in each well, which was calculated by multiplying cell count per well by cellular volume per cell (2.85 pl/cell). One independent study in duplicate was conducted to assess intracellular concentrations of the test articles for Seahorse studies.

[8] = as above; type: in vitro ADME; details: human, HepG2 cells, Seahorse medium
Protocol: as §2

[9] = target: T2, human BSEP; test: BSEP vesicular transport inhibition assay (taurocholate, HEK-293 cell membrane vesicles); type: biochemical
Protocol: as §1
For the simulation of bile acid transporter inhibition by lixivaptan in DILIsym, parameter values were selected for BSEP canalicular transport, basolateral transport (encompassing both MRP3 and MRP4), and NTCP transport. The parameter values for each include the inhibition constant, defined as the IC50 or Ki value, and the inhibition type, defined as competitive, non-competitive, or mixed inhibition.
In vesicular transport inhibition assays, lixivaptan and its metabolites each inhibited BSEP-mediated probe substrate accumulation (Figure B1) and MRP4-mediated probe substrate accumulation (Figure B2) dose-dependently.
Figure B1. […] See Appendix A for more details.

[10] = system: HepG2 cells; test: Seahorse XFe96 cellular respiration assay (oxygen consumption rate); type: cell-based; details: 24 hour incubation
Protocol: To assess the potential effect of the five test articles on mitochondrial function, cellular respiration assays using a Seahorse XFe96 Flux Analyzer were conducted by Cyprotex (Macclesfield, UK) and overseen by the authors. HepG2 cells were incubated with each test article for 1 or 24 hours and tested for an effect on cellular respiration by measuring the oxygen consumption rate (OCR). Each study was conducted in triplicate. Importantly, the 1 hour culture was conducted in the absence of serum (i.e. no serum protein binding) as is standard for the Seahorse Analyzer assay conditions.

[11] = system: simulated individuals; set-up: method as in PMID 27655350; details: 24 weeks, cited from earlier work; for Simulated ALT >3X ULN, frequency: 90/30 mg split daily dosing

**Q.** What does the source list for Cc1ccccc1C(=O)Nc1ccc(C(=O)N2CCCC(O)c3cc(Cl)ccc32)c(C)c1 (centres unmarked) [Tolvaptan, tolvaptan, reference compound]?
**A.** inhibition of MRP3-mediated probe substrate accumulation [1]: inhibited; Ki [2]: 31.6 µM; Clinical Hy's Law Cases ([3]; ADPKD): Yes; Clinical ALT >3X ULN, frequency ([3]; treated ADPKD patients): 4.4% and 5.6%; Coefficient for ETC inhibition (DILIsym parameter) used in previously published research [4]: 1.09 mM; inhibition of NTCP-mediated probe substrate accumulation [5]: inhibited; Coefficient for ETC inhibition (DILIsym parameter) [6]: 729 µM; CIntracellular Fraction ([7]; dose 0.1 µM): 0 µM; CHepatocyte ([7]; dose 0.1 µM): 0 µM; CIntracellular Fraction ([7]; dose 0.5 µM): 0 µM; CHepatocyte ([7]; dose 0.5 µM): 0 µM; CIntracellular Fraction ([7]; dose 1 µM): 0 µM; CHepatocyte ([7]; dose 1 µM): 0 µM; CIntracellular Fraction ([7]; dose 5 µM): 0.0156 µM; CHepatocyte ([7]; dose 5 µM): 32.20 µM; CIntracellular Fraction ([7]; dose 10 µM): 0.0162 µM; CHepatocyte ([7]; dose 10 µM): 34.40 µM; CIntracellular Fraction ([7]; dose 25 µM): 0.0629 µM; CHepatocyte ([7]; dose 25 µM): 149.2 µM; CIntracellular Fraction ([7]; dose 40 µM): 0.0937 µM; CHepatocyte ([7]; dose 40 µM): 227.9 µM; Kp at 5 µM ([8]; dose 5 µM): 6.44; Kp at 10 µM ([8]; dose 10 µM): 3.44; Kp at 25 µM ([8]; dose 25 µM): 5.97; Kp at 40 µM ([8]; dose 40 µM): 5.7; IC50 ([9]; read-out: BSEP inhibition constant (IC50)): 16.5 µM; inhibition of BSEP-mediated probe substrate accumulation ([9]; vesicular transport inhibition assay): inhibited; effect on HepG2 oxygen consumption rate (mitochondrial respiration) [10]: reduce the HepG2 OCR in a dose-dependent manner; Simulated ALT >3X ULN, frequency [11]: 7.86%; Simulated ALT >3X ULN, frequency ([11]; listed as tolvaptan): 7.86%; Simulated ALT >3X ULN ([11]; 90/30 mg): 18/229; Simulated Hy's Law Cases ([11]; 90/30 mg): Yes
